What all share (assay type): functional
In experiment [1] the test system is Mycobacterium tuberculosis. The experiment can be described thus: In vitro antimycobacterial activity against ethionamide-resistant Mycobacterium tuberculosis strain.
Experiment [2] concerns Mycobacterium tuberculosis. The experiment can be described thus: In vitro antimycobacterial activity against rifampin-resistant Mycobacterium tuberculosis strain.
For experiment [3], the system named is Mycobacterium tuberculosis. The experiment can be described thus: In vitro antimycobacterial activity against ethambutol-resistant Mycobacterium tuberculosis strain.
For experiment [4], the system named is Mycobacterium tuberculosis. The experiment can be described thus: In vitro antimycobacterial activity against thiacetazone resistant Mycobacterium tuberculosis strain.
Experiment [5] concerns Mycobacterium tuberculosis. The experiment can be described thus: In vitro antimycobacterial activity against isoniazid-resistant Mycobacterium tuberculosis strain.
The subject of experiment [6] is Mycobacterium tuberculosis. The experiment can be described thus: Minimum inhibitory concentration against isoniazid-resistant Mycobacterium tuberculosis strain.

Here are results for seven compounds from ChEMBL document CHEMBL1145244, “In vitro advanced antimycobacterial screening of isoniazid-related hydrazones, hydrazides and cyanoboranes: part 14” (2005).

Converted amounts (≈) assume the structure as drawn.

As to `O=C(N/N=C/c1ccc(C(F)(F)F)cc1)c1ccncc1`, the MIC in experiment [1] was 1.6 µg/mL (≈ 5.46 µM); in experiment [2], 0.2 µg/mL (≈ 0.682 µM); in experiment [3], 0.2 µg/mL (≈ 0.682 µM); in experiment [4], over 1.6 µg/mL; in experiment [5], over 1.6 µg/mL. Besides, the results for the MBC in experiment [2] and in experiment [5] were 0.4 µg/mL (≈ 1.36 µM) and over 1.6 µg/mL, respectively.

On to `C/C(=N\NC(=O)c1ccncc1)C(F)(F)F`, for which the MIC in experiment [1] is over 1.6 µg/mL; in experiment [2], 0.2 µg/mL (≈ 0.865 µM); in experiment [3], 0.2 µg/mL (≈ 0.865 µM); in experiment [4], over 1.6 µg/mL; in experiment [5], over 1.6 µg/mL. In addition, the MBC in experiment [2] is 0.2 µg/mL (≈ 0.865 µM); in experiment [5], over 1.6 µg/mL.

Take `C/C(=N\NC(=O)c1ccncc1)c1cccc(/C(C)=N/NC(=O)c2ccncc2)n1`: the MIC is over 12.5 µg/mL in experiment [1]; at most 0.2 µg/mL in experiment [2]; at most 0.2 µg/mL in experiment [3]; over 12.5 µg/mL in experiment [4]; over 12.5 µg/mL in experiment [5]. In addition, the MBC came to 6.25 µg/mL (≈ 15.6 µM) in experiment [2] and 12.5 µg/mL (≈ 31.1 µM) in experiment [5].

Regarding `C/C=N/NC(=O)c1ccncc1`, the MIC in experiment [1] is 0.375 µg/mL (≈ 2.3 µM); in experiment [2], 0.05 µg/mL (≈ 0.306 µM); in experiment [3] it was 0.025 µg/mL (≈ 0.153 µM); in experiment [4], over 0.75 µg/mL; in experiment [5], over 0.75 µg/mL. For the same compound, the MBC is 0.05 µg/mL (≈ 0.306 µM) in experiment [2] and over 0.75 µg/mL in experiment [5].

`N#CC[n+]1ccc(C(=O)NNCc2ccccc2)cc1`: the MIC in experiment [1] is over 25 µg/mL; in experiment [3], 6.25 µg/mL; in experiment [4], over 25 µg/mL; in experiment [5] it was over 25 µg/mL. Also, in experiment [5], the MBC is over 25 µg/mL.

Take `N#CC[n+]1ccc(C(=O)NNCC(F)(F)F)cc1`: the MIC was over 25 µg/mL in experiment [1]; 12.5 µg/mL in experiment [2]; 12.5 µg/mL in experiment [3]; over 25 µg/mL in experiment [4]; over 25 µg/mL in experiment [5]. Moreover, the MBC in experiment [2] was 6.25 µg/mL; in experiment [5], over 25 µg/mL.

`NNC(=O)c1ccncc1` [ISONIAZID] returned a minimum bactericidal concentration (MBC) in experiment [5] of over 1.6 µg/mL. In addition, the MIC in experiment [6] is over 0.2 µg/mL.

One may read the MIC as the smallest concentration in the dilution series that meets the test's criterion for growth inhibition. Usually MBC stands for the smallest concentration meeting the test's criterion for killing. A high value points to weaker bactericidal potency.
